Literature values as cited in PMC2923042 (Journal of chemical information and modeling, 2008).

System: catL
Conditions: extrapolated from 63% inhibition at 10^-7 M; ref Tsuge et al.[15]

IC50: < 100 nM
SMILES: CN(C)C(=O)[C@H](Cc1ccccc1)NC(=O)[C@H]1O[C@@H]1C(=O)NCCc1ccccn1 [CLIK-148]
